Source: article PMC12631574, “Structure–activity relationships of hydrophobic small molecule irreversible inhibitors of tissue transglutaminase” (RSC Medicinal Chemistry, 2025)
Read-outs that look alike come from different tables or passages of the source.

Columns and labels:
[1] = target: T1, tissue transglutaminase (TG2), C-terminal His-tag TG2 (Homo sapiens, UniProt P21980); assay: continuous AL5 hydrolysis assay of irreversible TG2 inhibition (kobs vs [I]/α); assay type: biochemical
T1 construct: host or cells: Novagen Rosetta 2 (DE3) E. coli
T1 sequence (P21980 1-687): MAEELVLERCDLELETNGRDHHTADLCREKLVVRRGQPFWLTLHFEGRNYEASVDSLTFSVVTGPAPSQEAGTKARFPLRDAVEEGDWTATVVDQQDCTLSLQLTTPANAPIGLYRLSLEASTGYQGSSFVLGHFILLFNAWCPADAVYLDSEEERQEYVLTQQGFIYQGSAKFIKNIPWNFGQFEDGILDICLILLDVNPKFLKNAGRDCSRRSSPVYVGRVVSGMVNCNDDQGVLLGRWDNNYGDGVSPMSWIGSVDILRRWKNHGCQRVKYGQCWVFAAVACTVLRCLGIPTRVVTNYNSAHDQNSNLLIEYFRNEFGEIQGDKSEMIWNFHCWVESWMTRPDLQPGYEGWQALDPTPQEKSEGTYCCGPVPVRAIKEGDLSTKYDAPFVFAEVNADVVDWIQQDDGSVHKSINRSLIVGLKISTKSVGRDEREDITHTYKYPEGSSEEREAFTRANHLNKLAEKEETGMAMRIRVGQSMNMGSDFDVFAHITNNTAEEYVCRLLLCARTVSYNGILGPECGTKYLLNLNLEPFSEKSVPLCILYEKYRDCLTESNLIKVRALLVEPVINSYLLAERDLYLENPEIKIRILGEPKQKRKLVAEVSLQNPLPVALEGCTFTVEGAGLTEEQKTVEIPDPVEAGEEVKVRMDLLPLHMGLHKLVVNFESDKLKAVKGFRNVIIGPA

[2] = solubility in inhibition assay conditions and stock solutions; assay type: physicochemical; details: inhibition assay mixture, DMSO not above 6%
[3] = parallel artificial membrane permeability assay (PAMPA), at Pharmaron; assay type: in vitro ADME
[4] = stability in human hepatocytes, at Pharmaron; assay type: in vitro ADME; details: 20-donor, pooled; for hepatocyte CLint: read-out: In vitro CLint; for half-life: human, hepatocytes, read-out: In vitro t1/2
[5] = incubation in phosphate buffer with no hepatocytes present; assay type: physicochemical; details: phosphate buffer 0.1 M, pH = 8.0, no hepatocytes present
[6] = tested on: human hepatocytes; parameters: method as in PMID 36846370; details: cited from earlier work
[7] = tested on: MDCK-MDR1 cells; parameters: method as in PMID 39708924; details: cited from earlier work
[8] = inhibition efficiency, combined from kinact and KI
[9] = irreversible inhibition, AL5 100 μM, pH 6.9, 25 °C, triplicate
[10] = supplement, kinetics data and fitting
[11] = Pe in cm s^−1, lower value is more permeable, read-out: −log[Pe (cm s^−1)] (converted)

Compound	kinact/KI [1, 8]	KI [1, 9]	kinact [1, 9]	solubility in assay conditions [2]	kinact [1]	KI (inactivation) [1, 9]	KI (inactivation) [1, 10]	kinact/KI [1, 10]	−log[Pe (cm s^−1)] ([3]; Pe in cm s^−1, lower value is more permeable)	Papp ([3]; read-out: Pe)	hepatocyte CLint [4]	half-life [4]	Papp [3, 11]	stability in phosphate buffer [5]	In vitro t1/2 [6]	susceptibility to P-glycoprotein-mediated efflux ([7]; MDCK-MDR1 cells)	diffusion across the membrane of MDCK-MDR1 cells ([7]; bidirectional)
C=CC(=O)NCC(=O)N1CCN(C(=O)c2ccc(-c3ccc(C)cc3)cc2)CC1 [Compound 21i, N-2-[4-[((4′-Methyl-4-biphenyl)carbonyl)-1-piperazinyl]-2-oxoethyl]propenamide]	INS	INS	INS	too insoluble in assay conditions													
C=CC(=O)NCC(=O)N1CCN(C(=O)c2ccc(Oc3ccccc3)cc2)CC1 [Compound 22h, N-2-[4-[((4-Phenoxyphenyl)carbonyl)-1-piperazinyl]-2-oxoethyl]propenamide]	INS.	INS.	INS.	too insoluble in assay conditions													
C=CC(=O)NCC(=O)N1CCN(C(=O)C23CC4CC(CC(Cl)(C4)C2)C3)CC1 [Compound 25b, N-2-[4-[(3-Chloroadamantanecarbonyl)-1-piperazinyl]-2-oxoethyl]propenamide]					0.0282 s⁻¹	1.79 ± 0.17 µM	1.79 ± 0.17 µM	941 ± 101 × 103 M-1min-1	5.85	1.41 ×10⁻⁶ cm/s	6.91 µL/min/1e6 cells	200 min					
C=CC(=O)NCC(=O)N1CCN(C(=O)C23CC4CC(CC(Br)(C4)C2)C3)CC1 [Compound 25c, N-2-[4-[(3-Bromoadamantanecarbonyl)-1-piperazinyl]-2-oxoethyl]propenamide]					0.0119 s⁻¹	0.65 ± 0.08 µM	0.648 ± 0.085 µM	1104 ± 162 × 103 M-1min-1					2.19 ×10⁻⁶ cm/s	degrade after 24 hours			
C=CC(=O)NCC(=O)N1CCN(C(=O)C23CC4CC(C2)CC(c2ccccc2)(C4)C3)CC1 [Compound 25d, N-2-[4-[(3-Phenyladamantanecarbonyl)-1-piperazinyl]-2-oxoethyl]propenamide]					0.0112 s⁻¹	0.69 ± 0.07 µM	0.691 ± 0.067 µM	972 ± 103 × 103 M-1min-1			29.3 µL/min/1e6 cells	~47 min	13.2 ×10⁻⁶ cm/s				
C=CC(=O)NCC(=O)N1CCN(C(=O)C23CC4CC(CC(I)(C4)C2)C3)CC1 [Compound 29, N-2-[4-[(3-Iodoadamantanecarbonyl)-1-piperazinyl]-2-oxoethyl]propenamide]					0.0278 s⁻¹	1.4 ± 0.12 µM	1.4 ± 0.12 µM	1195 ± 112 × 103 M-1min-1			69.2 µL/min/1e6 cells	20 min	5.25 ×10⁻⁶ cm/s	degrade after 24 hours			
C=CC(=O)NCC(=O)N1CCN(C(=O)C23CC4CC(CC(C4)C2)C3)CC1 [EB-2-16, reference compound]					0.0233 s⁻¹	2.43 ± 0.19 µM	2.43 ± 0.19 µM	576 ± 50 × 103 M-1min-1					1.55 ×10⁻⁶ cm/s		>120 (ref. [27]) min	not susceptible to P-glycoprotein-mediated efflux	excellent bidirectional diffusion
